The subject of data set [1] is skeletal muscle lactate dehydrogenase (LDH). Kind of data set: Skeletal muscle lactate dehydrogenase (LDH) activity after forced swimming test. To be noted: Program II; male mice; Fluoxetine 10 mg/kg i.p. daily. Type of data set: in vivo, BALB/c mice.
Data set [2] has as its system skeletal muscle malate dehydrogenase (MDH). Kind of data set: Skeletal muscle malate dehydrogenase (MDH) activity after forced swimming test. Type of data set: in vivo, BALB/c mice. As to conditions: Program II; male mice; Fluoxetine 10 mg/kg i.p. daily.
Data set [3] is classed as in vivo, BALB/c mice. As to conditions: Program II; male mice; Fluoxetine 10 mg/kg i.p. daily, 4 weeks.
The nature of data set [4]: Blood (serum) biochemical parameters after 28-day treatment. Type of data set: in vivo, BALB/c mice. As to conditions: male mice, 28 days.

Each structure is given as a SMILES string. Where a name gives a salt, the structure may show the parent alone.

As to `CNCCC(Oc1ccc(C(F)(F)F)cc1)c1ccccc1` (centres unmarked) [Fluoxetine, fluoxetine hydrochloride], in data set [1], the “increase of LDH activity compared to the vehicle control treatment” value is on record as 1.3 fold. Further, the “increase of MDH activity compared to the vehicle control treatment” value in data set [2] is on record as 1.1 fold. Moreover, the “body weight, feed and water intake” value in data set [3] is given as “did not have significant differences”. Moreover, in data set [4] (Fluoxetine 10 mg/kg i.p. daily), the “ALB, albumin (serum)” value stood at 3.67 ± 0.28 g/dL; the “ALP, alkaline phosphatase (serum)” value is recorded as 501.2 ± 21.2 U/L; the “CHO, cholesterol (serum)” value is 136.5 ± 42.9 mg/dL; the “CTE, creatinine (serum)” value was 0.45 ± 0.05 mg/dL. In addition, in data set [4] (Fluoxetine 10 mg/kg i.p. daily), the “GLU, glucose (serum)” value was determined as 207.0 ± 12.6 mg/dL; the “GOT, glutamic oxaloacetic transaminase (serum)” value came out at 171.0 ± 19.8 U/L; the “GPT, glutamic pyruvic transaminase (serum)” value turned out to be 61.2 ± 19.2 U/L; the “HDL, high-density lipoprotein (serum)” value is given as 136.6 ± 15.3 mg/dL. Further, in data set [4] (Fluoxetine 10 mg/kg i.p. daily), the “LDH, lactate dehydrogenase (serum)” value is on record as 362.7 ± 65.3 U/L; the “TBIL, total bilirubin (serum)” value was 0.65 ± 0.04 mg/dL; the “TG, triglyceride (serum)” value is 288.3 ± 27.1 mg/dL; the “TP, total protein (serum)” value is 5.01 ± 0.35 g/dL. In addition, the “UA, uric acid (serum)” value in data set [4] (Fluoxetine 10 mg/kg i.p. daily) came to 2.77 ± 0.32 mg/dL. Besides, in data set [4] (Fluoxetine i.p.), the “serum biochemical parameters” value is “no significant difference and fall within the reference range of normal or healthy mice”.

(Values after US20240009259A1, “USE OF CRASSOCEPHALUM RABENS EXTRACT IN THE PREVENTION AND/OR TREATMENT OF FATIGUE AND/OR DEPRESSION” (ACADEMIA SINICA, priority 2021, published 2024).)
